Experimental data published in US9469647B2, “Salt crystals” (INTRA-CELLULAR THERAPIES, INC., priority 2012, dated 2016).
Structures can show the parent of a compound that is named as a salt.

Experiments:
[1] = Solubility study of phosphate salt crystals in aqueous media at pH 1.2-6.8; type: physicochemical
Description: The (6aR,9aS)-5,6a,7,8,9,9a-hexahydro-5-methyl-3-(phenylamino)-2-((4-(6-fluoropyridin-2-yl)phenyl)methyl)-cyclopent[4,5]imidazo[1,2-a]pyrazolo[4,3-e]pyrimidin-4(2H)-one mono-phosphate salt crystals are assessed for its aqueous solubility at lower pH. The (amorphous) free base is also tested for reference at a limited range of pH.
Phosphate (buffer) solutions are made at 50 mM concentration and the pH is adjusted to pH 2, 3, 4, 5 or 6.8 using either 3M phosphoric acid (lower pH) or 3M NaOH (higher pH). 0.1N HCl is also used, pH is measured as 1.2.
20 mg of the (6aR,9aS)-5,6a,7,8,9,9a-hexahydro-5-methyl-3-(phenylamino)-2-((4-(6-fluoropyridin-2-yl)phenyl)methyl)-cyclopent[4,5]imidazo[1,2-a]pyrazolo[4,3-e]pyrimidin-4(2H)-one mono-phosphate salt crystals or free base is weighed into a glass vial, and 2 ml of the relevant aqueous media is added. The vials are shaken. After 1 hr, a sample (˜1 ml) is removed via syringe, and filtered through a syringe filter (0.2 micron) into an HPLC vial. After shaking the suspensions for 16 hours, a second sample is taken. All samples are then diluted with the HPLC diluent by a factor of 1000 (except the pH 6.8 samples which are diluted ×10), and re-analysed by HPLC. In cases where the entire solid dissolved, the 2 ml solution is added to another 20 mg salt or free base.

[2] = Solid-state properties of the mono-phosphate salt crystals for galenic formulation; type: physicochemical
[3] = USP2 dissolution study at pH 1 and 4.5; type: physicochemical
Text: The rate of dissolution is an important factor in the bioavailability of an active pharmaceutical ingredient (API). This is commonly tested using standard conditions e.g. USP 2 dissolution testing. The pH of the aqueous media used can be correlated with the pH of the stomach (low pH −1-2) and the intestines (intermediate acidic pH −4-6). Therefore pH 1 (0.1 M HCl) and a citrate buffer at pH 4.5 (0.2M) are used for the dissolution testing.
The (6aR,9aS)-5,6a,7,8,9,9a-hexahydro-5-methyl-3-(phenylamino)-2-((4-(6-fluoropyridin-2-yl)phenyl)methyl)-cyclopent[4,5]imidazo[1,2-a]pyrazolo[4,3-e]pyrimidin-4(2H)-one mono-phosphate salt crystals are weighed (×4) into size 0 white gelatine capsules at 119 mg per capsule (equivalent to 100 mg API). The (6aR,9aS)-5,6a,7,8,9,9a-hexahydro-5-methyl-3-(phenylamino)-2-((4-(6-fluoropyridin-2-yl)phenyl)methyl)-cyclopent[4,5]imidazo-[1,2-a]pyrazolo[4,3-e]pyrimidin-4(2H)-one is also weighed (×2) into white gelatine capsules at 100 mg per capsule. These capsules are then dissolved using the standard set up of the USP 2 dissolution equipment i.e., in 1000 mL of the relevant aqueous media, stirrers set at 50 rpm, capsules placed in metal coils to weigh them down, media equilibrated with the water bath set at 37″C. Analytical samples are removed via canula, with an initial filter on the canula and secondary filtering through 0.2 micron syringe filters. The samples are then analysed without dilution by HPLC for API content. Calibration for HPLC is run using both the free base API and the phosphate salt.

[4] = Single rising dose clinical study (pharmacokinetic profile); type: in vivo; conditions: plasma, human, aqueous solution, Mean (SD)
Description: In a single rising dose clinical study involving 55 active subjects (15 placebo) with 11 active:3 placebo for each dose level of 10, 25, 75, 150, 300 mg, the mono-phosphate salt crystals of (6aR,9aS)-5,6a,7,8,9,9a-hexahydro-5-methyl-3-(phenylamino)-2-((4-(6-fluoropyridin-2-yl)phenyl)methyl)-cyclopent[4,5]imidazo[1,2-a]pyrazolo[4,3-e]pyrimidin-4(2H)-one is dissolved in water, and this aqueous solution is orally administered. The pharmacokinetic profile is setforth below in Table 7.

[5] = pH 5, 50 mM phosphate buffer, diluted 1000 times before HPLC
[6] = pH 6.8, 50 mM phosphate buffer, diluted 10 times before HPLC

## CN1C(=O)c2c(nn(Cc3ccc(-c4cccc(F)n4)cc3)c2Nc2ccccc2)N2C1=N[C@@H]1CCC[C@@H]12 [Phosphate salt, (6aR,9aS)-5,6a,7,8,9,9a-hexahydro-5-methyl-3-(phenylamino)-2-((4-(6-fluoropyridin-2-yl)phenyl)methyl)-cyclopent[4,5]imidazo[1,2-a]pyrazolo[4,3-e]pyrimidin-4(2H)-one]
[1]; 50 mM phosphate buffer, pH 4, aqueous buffer, thermodynamic from solid, pH 4
  solubility: ≤ 7700 µg/mL
[1]; 50 mM phosphate buffer, pH 4, aqueous buffer, thermodynamic from solid, pH 4, 50 mM phosphate buffer, read-out: Solubility after 1 hr
  solubility at 1 hr: 2500 µg/mL
[1]; 50 mM phosphate buffer, pH 4, aqueous buffer, thermodynamic from solid, pH 4, 50 mM phosphate buffer, read-out: Solubility after 16 hrs
  solubility at 16 hr: 7700 µg/mL
[1]; pH 1.2 (0.1N HCl)
  Solubility after 1 hr: >20000 µg/mL
  Solubility after 16 hrs: >20000 µg/mL
[1]; pH 2, 50 mM phosphate buffer
  Solubility after 1 hr: 13600 µg/mL
  Solubility after 16 hrs: 17000 µg/mL
[1]; pH 3
  solubility compared with the amorphous free base: better solubility than the amorphous free base
[1]; pH 3, 50 mM phosphate buffer
  Solubility after 1 hr: 8400 µg/mL
  Solubility after 16 hrs: 9400 µg/mL
[1]; [5]
  Solubility after 1 hr: Below detection limit*
  Solubility after 16 hrs: Below detection limit*
[1]; [6]
  Solubility after 1 hr: Below detection limit*
  Solubility after 16 hrs: Below detection limit*
[2]; general statement
  solubility: good solubility
[2]; solid salt crystals
  hygroscopicity: low hygroscopicity
  stability: particularly stable
[3]; USP 2, pH 1 and pH 4.5
  dissolution rate compared with the free base: better dissolution rates than the free base
[3]; pH 1 (0.1 M HCl), 37 C
  solubility at low pH in dissolution study: good solubility
[3]; pH 1, about 0.1 mg/mL (API equivalent), capsule in 1000 mL, 50 rpm
  time to full dissolution: approximately 15 minutes
[4]; single oral dose 10 mg
  AUC(0-inf): 772 ng·h/mL
  AUC(0-t): 768 ng·h/mL
  Cmax: 89.7 ng/mL
  Tmax: 1 h
[4]; single oral dose 25 mg
  AUC(0-inf): 1340 ng·h/mL
  AUC(0-t): 1340 ng·h/mL
  Cmax: 155 ng/mL
  Tmax: 0.5 h
[4]; single oral dose 75 mg
  AUC(0-inf): 3050 ng·h/mL
  AUC(0-t): 3040 ng·h/mL
  Cmax: 334 ng/mL
  Tmax: 1 h
[4]; single oral dose 150 mg
  AUC(0-inf): 5050 ng·h/mL
  AUC(0-t): 5040 ng·h/mL
  Cmax: 585 ng/mL
  Tmax: 1 h
[4]; single oral dose 300 mg
  AUC(0-inf): 8190 ng·h/mL
  AUC(0-t): 8180 ng·h/mL
  Cmax: 828 ng/mL
  Tmax: 1 h
